# Entries after “also recorded” stand apart in the source; their conditions may differ.
# Columns and labels:
# THP1 cells = assay: Cyto-ID autophagy detection assay, THP1 cells; format: cell-based, human; details: 4h incubation, resveratrol 80 μM, ONX-0914 0.25 μM
# [1] = test system: purified human 20S proteasome and immunoproteasome, PA activity; assay: Purified proteasome fluorescence assay, PA activity; format: biochemical; details: 50 μM dose, cell-free
# [2] = test system: purified human 20S proteasome and immunoproteasome, T-like activity; assay: Purified proteasome fluorescence assay, T-like activity; format: biochemical
# [3] = test system: CD14+ human blood monocytes; assay: Gene expression by qRT-PCR in LPS-induced CD14+ monocytes; format: cell-based; details: for expression of Bax / expression of Bcl2 / proteasome subunits RNA (X, Y, Z): resveratrol 80 μM or ONX-0914 0.25 μM; for LPS-induced atg7 expression / LPS-induced expression of resistin / expression of ICAM-1 / expression of IFNγ / expression of IL-8 / expression of LMP10 subunit / expression of Sirt-1 / expression of TNF-α / mRNA expression of LMP2 subunit / mRNA expression of LMP7 subunit: resveratrol 80 μM or ONX-0914 0.25 μM pretreatment 1h, LPS 10 ng/mL 4h; for proteasome subunits RNA (X, Y, Z): with LPS 10 ng/mL 4h
# [4] = test system: pIκBα in CD14+ human blood monocytes; assay: pIκBα protein levels by immunoblot; format: cell-based; details: LPS 10 ng/ml-induced monocytes, resveratrol 80 μM or ONX-0914 0.25 μM, 60 min preincubation
# [5] = molecular target: purified human 20S immunoproteasome (LMP subunits), PA activity (Homo sapiens, UniProt P28065); assay: Purified proteasome fluorescence assay, PA activity, immunoproteasome; format: biochemical
# [6] = test system: PA proteasome activity in THP1 cells; assay: Cell-based proteasome activity, luminescence assay; parameters: species or system human; details: read-out: IC50, PA activity (cellular), 30 min incubation
# [7] = molecular target: purified human 20S proteasome, PA activity (Homo sapiens, UniProt P28072); assay: Purified proteasome fluorescence assay, PA activity, constitutive proteasome; format: biochemical
# [8] = test system: T-like proteasome activity in THP1 cells; assay: Cell-based proteasome activity, luminescence assay; parameters: species or system human; details: read-out: IC50, T-like activity (cellular), 30 min incubation
# [9] = molecular target: purified human 20S proteasome (X, Y and Z), CT-like activity (Homo sapiens, UniProt P28074); format: biochemical
# [10] = test system: CD14+ human blood monocytes; assay: Cyto-ID autophagy detection assay, blood monocytes; format: cell-based; details: 4h incubation, resveratrol 80 μM
# [11] = MTT and LDH cell death assay; details: human
# monocytes = assay: MTT and LDH cell death assay; details: 80 μM, human monocytes, MTT, LDH or autophagy tests
# [12] = test system: CT-like proteasome activity in THP1 cells; assay: Cell-based proteasome activity, luminescence assay; parameters: species or system human; details: read-out: IC50, CT-like activity (cellular), 30 min incubation
# [13] = molecular target: purified human 20S immunoproteasome (LMP7, LMP2 and LMP10), CT-like activity (Homo sapiens, UniProt P28062); assay: Purified proteasome fluorescence assay, CT-like activity, immunoproteasome; format: biochemical
Compound,induction of autophagy (THP1 cells),expression of Bax [3],expression of Bcl2 [3],LPS-induced atg7 expression [3],LPS-induced expression of resistin [3],expression of ICAM-1 [3],expression of IFNγ [3],expression of IL-8 [3],expression of LMP10 subunit [3],expression of Sirt-1 [3],expression of TNF-α [3],mRNA expression of LMP2 subunit [3],mRNA expression of LMP7 subunit [3],"proteasome subunits RNA (X, Y, Z) [3]",degradation of pIκBα protein [4],also measured
"COc1ccc(C[C@H](NC(=O)[C@H](C)NC(=O)CN2CCOCC2)C(=O)N[C@@H](Cc2ccccc2)C(=O)C2(C)CO2)cc1 (stereo in doubt) [ONX-0914, reference compound]",resulted in autophagy and vacuole accumulation,didn’t notice any effect,didn’t notice any effect,but not by ONX-0914,decreased,significantly downregulated,significantly downregulated,significantly downregulated,no significant change,no significant upregulation,significantly downregulated,robust decrease,robust decrease,did not observe a significant change,inhibited pIκBα protein degradation,"inhibition of PA activity [1]: 30%; inhibition of T-like activity ([2]; highest dose of ONX-0914, cell-free): didn’t observe any inhibition"
"Oc1ccc(C=Cc2cc(O)cc(O)c2)cc1 [resveratrol, 3,5, 4′-trihydroxystilbene]",did not induce autophagy,no change; also recorded: didn’t notice any effect,no change; also recorded: didn’t notice any effect,downregulated,decreased,significantly downregulated,significantly downregulated,significantly downregulated,no significant change,no significant upregulation,significantly downregulated,robust decrease,robust decrease,did not observe a significant change,inhibited degradation of pIκBα protein levels,"IC50 [5]: 40.8 µM; IC50 [6]: 1.37 µM; IC50 [7]: 52.9 µM; IC50 [8]: 5 µM; IC50 [9]: 59.4 µM; inhibition of T-like activity ([2]; 100 μM dose, cell-free): 33%; induction of autophagy [10]: did not induce autophagy; expression of beclin1, eIF2α, p53 and hdac6 genes ([3]; resveratrol 80 μM, with or without LPS 10 ng/mL): no significant change; viability at 4 h, 100 μM [11]: > 90%; cell death (monocytes): no cell death was observed; IC50 [12]: 1.9 µM; IC50 [13]: 39.8 µM"
